The text below walks through data of patent US6465007B1, “Transgene expression in polarized cells” (Genzyme Corporation, priority 1998, dated 2002).

Experiment [1] has as its system epithelial tight junctions of mouse trachea. Put plainly: Lanthanum precipitation in trachea under TEM. Format: in vivo. As to conditions: treated animals vs control animals. As to the method:
Openings in tight junctions were visualized using a method described previously (Shaklai and Tavassoli, 1977; and Schneeberger and McCormack, 1984) with modifications. Briefly, mouse trachea was fixed with 2.5% glutaraldehyde, 1% lanthanum nitrate in 0.1 M cacodylate buffer, pH 7.4, for 4 to 6 h at […]. The trachea was then rinsed and washed 16 h with three changes of ice-cold 6.8% sucrose in 0.1 M cacodylate buffer ˜pH 7.4). The samples were postfixed in 1% OsO4 in 0.1 M cacodylate buffer containing 1% lanthanum nitrate pH 7.4 at 4° C. for 1 h, and dehydrated and then embedded in epoxy resin.

The test system of another experiment is tight junctions. As to conditions: compared with EDTA; cited from earlier work.
In the next experiment the test system is mouse trachea. Put plainly: Aerosolized Ad2βgal-4 after intranasal pre-treatment, X-gal staining. Format: in vivo. As for the experimental part: Viral aerosols were generated using a MiniHEART low flow jet nebulizer (Vortran, Sacramento, Calif.). The nebulizer was operated at 50 psi with compressed medical grade air at the maximum flow rate (˜2.21 pm). Animals were exposed to the aerosol in a whole-body exposure chamber. Ten ml of an Ad2βgal-4 solution (5×10^10 IU) was aerosolized over approximately one hour. Some mice were pre-treated with 50 μl of dH2O or EGTA solution by intranasal instillation 0, 15, 30, or 60 min before aerosolization, while others received no treatment prior to exposure to aerosol. X-gal staining was performed 3 days post aerosolization.
Cytochemical localization of Ogal expression in the trachea was observed using 5-bromo-4-chloro-3-indolyl-β-D-galactopyranoside (X-gal; Sigma). In brief, cannulated mouse lungs were fixed for 10 min by infusion of a fixing solution (2% paraformaldehyde and 0.2% glutaraldehyde in PBS). The lungs were then rinsed twice with 50 mM glycine in PBS, filled with X-gal solution, and stained overnight. Staining was stopped by transfering the samples into the fixing solution.

Another experiment deals with AdV. Put plainly: Effect on AdV titer assessed on 293 cells. As to conditions: concentrations up to 0.4 M.

Structures are written as SMILES.

Description for AdV: To rule out the possibility that EGTA might enhance the activity of AdV, the effects of EGTA on AdV titer were assessed on 293 cells.

With `O=C(O)CN(CCOCCOCCN(CC(=O)O)CC(=O)O)CC(=O)O` [EGTA, Ethylene glycol bis(B-aminoethyl ether) N,N,N′,N′-tetraacetic acid], the “penetration of lanthanum precipitates through epithelial tight junctions” value in experiment [1] is given as “penetrated through the epithelial tight junctions”. Besides, in the experiment with tight junctions, the “effectiveness at disrupting tight junctions” value was “more effective than EDTA”. Further, the figures for the “X-gal stained cells in trachea after AdV aerosol” value in the experiment with mouse trachea (50 μl of 0.1 M intranasal 30 min prior to aerosol) and with mouse trachea (pretreated 1 h prior to aerosol) were “significant number of positively stained cells” and “no significant increase”, respectively. Moreover, the “effect on virus activity” value in the experiment on AdV is “no measurable effect”.
